Reference: PMC8154124, “Design, Synthesis, Anticancer Evaluation, Enzymatic Assays, and a Molecular Modeling Study of Novel Pyrazole–Indole Hybrids” (ACS Omega, 2021)

Experiments:
[1] = test system: Bcl-2; assay: Bcl-2 ELISA in treated HepG2 cells; format: cell-based, human; conditions: for Bcl-2 level relative to control, fold: HepG2, versus control; for Bcl-2: HepG2 cells treated, cont. HepG2 6.222 ± 0.14
Method: Furthermore, it is well known that the antiapoptotic Bcl-2 protein plays a critical role in cancer resistance therapy.[56] Therefore, we have studied the effect of both compounds 7a and 7b on Bcl-2 protein expression levels. They provided a 0.5- and 0.4-fold decrease in the Bcl-2 concentration, respectively.
Activities of Bcl-2 were measured using the Invitrogen Zymed Bcl-2 ELISA Kit, Catalog # 99–0042 (96 tests) (Invitrogen Corporation) according to the manufacturer’s instructions.

[2] = test system: human colorectal carcinoma (HCT-116); assay: MTT cytotoxicity assay, HCT-116; format: cell-based; conditions: 48 h, mean ± SD
Method: (§1) The cells of human liver carcinoma (HepG2), human breast adenocarcinoma (MCF-7), human colorectal carcinoma (HCT-116), and human lung carcinoma (A549) were purchased from the American Type Culture Collection (Rockville, MD). All cells were maintained in a Dulbecco’s modified Eagle’s medium (DMEM), which was supplemented with 10% of heat-inactivated fetal bovine serum (FBS) and 100 U/mL penicillin and streptomycin each. The cells were grown at 37 °C in a humidified atmosphere of 5% CO2.
(§2) The cytotoxicity activities on the human liver carcinoma (HepG2), human breast adenocarcinoma (MCF-7), human colorectal carcinoma (HCT-116), and human lung carcinoma (A549) cell lines were estimated employing the 3-(4,5-dimethyl-2-thiazolyl)-2,5-diphenyl-2H-tetrazolium bromide (MTT) assay, which was grounded on the reduction of the tetrazolium salt by mitochondrial dehydrogenases in viable cells.[51],[52] The cells were dispensed in a 96-well sterile microplate (3 × 10^4 cells/well), followed by their incubation at 37 °C with a series of different concentrations of 10 μL of each compound or doxorubicin (positive control, in DMSO) for 48 h in a serum-free medium prior to the MTT assay. Subsequently, the media were carefully removed, and 40 μL of MTT (2.5 mg/mL) was added to each well and then incubated for an additional 4 h. Purple formazan dye crystals were solubilized by the addition of 200 μL of DMSO. The absorbance was measured at 570 nm using a SpectraMax Paradigm Multi-Mode microplate reader. The relative cell viability was expressed as the mean percentage of viable cells relative to the untreated control cells. All experiments were conducted in triplicate and were repeated on three different days. All of the values were represented as mean ± standard deviation (SD). The IC50s were determined by the SPSS probit analysis software program (SPSS Inc., Chicago, IL).

[3] = test system: human lung carcinoma (A549); assay: MTT cytotoxicity assay, A549; format: cell-based; conditions: 48 h, mean ± SD
Method: as §1, §2

[4] = test system: human breast adenocarcinoma (MCF-7); assay: MTT cytotoxicity assay, MCF-7; format: cell-based; conditions: MCF7, 48 h, mean ± SD
Method: as §1, §2

[5] = test system: Bax; assay: Bax ELISA in treated HepG2 cells; format: cell-based, human; conditions: cont. HepG2 5.762 ± 1.18
Method: In addition, the pro-apoptotic protein (Bax) is a protein that accelerates apoptosis by binding to and antagonizing the death repressor activity of Bcl-2.[57] Following any apoptotic stimuli, Bax causes activation of caspase-3 and perpetuates the apoptotic cascade.[58] The Bax protein expression level is altered in various human malignancies.[59],[60] Therefore, the effect of both compounds 7a and 7b on the Bax expression level has been studied.
Activities of Bax were measured using the Human Bax ELISA kit (DRG Human Bax ELISA (EIA-4487) DRG International, Inc.) according to the manufacturer’s instructions.

[6] = test system: HepG2 cancer cells; assay: Cell cycle analysis by flow cytometry (PI staining); format: cell-based, human; conditions: for accumulation of cells at the Pre G1 phase, fold compared to the control / increase in S phase, fold compared to the reference control / reduction in the percentage of cells at the G2/M phase, fold: HepG2, 7a and 7b at 7.9 and 6.1 μM respectively, 24 h; for %preG / %DIP G2/M / %DIP G1 / %DIP S: HepG2, Figure 3; for %preG: negative control 1.49%; for %DIP G2/M: negative control 9.7%; for %DIP G1: negative control 43.72%; for %DIP S: negative control 46.58%
Method: To elucidate whether the cytotoxic activity is due to suppression of cell cycle progression, HepG2 cells were exposed to compounds 7a and 7b at concentrations of 7.9 and 6.1 μM, respectively, for 24 h and analyzed using flow cytometry. […] These compounds also provided a slight increase in S phases by 0.1- and 0.14-fold, respectively, compared to the reference control, as shown in Figure 3.
(§3) Cell cycle analysis and apoptosis detection were carried out using flow cytometry.[62] Both HepG2 and MCF-7 cells were seeded at 8 × 10^4 and incubated at 37 °C and 5% CO2 overnight. After treatment with the tested compounds for 24 h, cell pellets were collected and centrifuged (300g, 5 min). For cell cycle analysis, the cell pellets were fixed with 70% ethanol on ice for 15 min and collected again. The collected pellets were incubated with propidium iodide (PI) staining solution (50 μg/mL PI, 0.1 mg/mL RNaseA, 0.05% Triton X-100) at room temperature for 1 h and analyzed using a Gallios flow cytometer (Beckman Coulter, Brea, CA). Apoptosis detection was performed using a FITC annexin V/PI commercial kit (Becton Dickenson, Franklin Lakes, NJ) following the manufacturer’s protocol. The samples were analyzed using fluorescence-activated cell sorting (FACS) with a Gallios flow cytometer (Beckman Coulter, Brea, CA) within 1 h after staining. Data were analyzed using Kaluza v1.2 (Beckman Coulter).

[7] = test system: caspase-3; assay: Caspase-3 (active) ELISA in treated HepG2 cells; format: cell-based, human; conditions: for caspase-3 activation, fold higher than the negative control: HepG2, 7a and 7b at 7.9 and 6.1 μM respectively, 24 h; for caspase-3: HepG2 cells treated 24 h, cont. HepG2 67.3 ± 2.8
Method: It has been reported that caspases cascade through either intrinsic or extrinsic pathways that mediate the induction of apoptosis, which may lead to apoptotic cell death.[53]−[55] Caspase-3 is involved in cell shrinkage, chromatin condensation, and DNA fragmentation inside the cells, causing apoptosis induction.
Activities of caspase-3 were measured using the Invitrogen caspase-3 (Active) (human) ELISA kit, Catalog # KHO1091 (96 tests) (Invitrogen Corporation) according to the manufacturer’s instructions.

[8] = test system: HepG2 cancer cells; assay: Annexin V/PI apoptosis detection by flow cytometry; format: cell-based, human; conditions: negative control DMSO 1.49%
Method: The induction of apoptosis has been investigated using the annexin V/propidium iodide (PI) staining assay for both compounds 7a and 7b on HepG2.
as §3

[9] = target: CDK-2 enzyme (Homo sapiens, UniProt P24941); assay: In vitro CDK-2 enzyme inhibitory assessment (ELISA); format: biochemical
Method: Estimation of CDK-2 was performed using ELISA through an affinity tag labeled capture antibody and a reporter conjugated detector antibody, which immunocapture the sample analyte in solution. The addition of the standard and samples to the wells is carried out, followed by the addition of the antibody mix. After the incubation period is completed, the wells are washed, and the unrestrained substance is discarded. Then, TMB (3,3′,5,5′-tetramethylbenzidine) substrate is added, and prompted by horseradish peroxidase (HRP), blue coloration appeared. The reaction was stopped by the addition of a stop solution, completely changing the color from blue to yellow. Signals were created equivalently to the quantity of the bound analyte, and the intensity was recorded at a certain wavelength (450 nm) using a Robonik P2000 ELISA reader. The concentrations of the tested compounds were calculated from the plotted curve.

[10] = test system: human liver carcinoma (HepG2); assay: MTT cytotoxicity assay, HepG2; format: cell-based; conditions: 48 h, mean ± SD
Method: as §1, §2

SMILES	Bcl-2 level relative to control, fold [1] [fold]	Bcl-2 [1] [ng/mL]	IC50 [2] [µM]	IC50 [3] [µM]	IC50 [4] [µM]	Bax [5] [pg/mL]	accumulation of cells at the Pre G1 phase, fold compared to the control [6] [fold]	increase in S phase, fold compared to the reference control [6] [fold]	reduction in the percentage of cells at the G2/M phase, fold [6] [fold]	%preG [6] [%]	%DIP G2/M [6] [%]	%DIP G1 [6] [%]	%DIP S [6] [%]	caspase-3 activation, fold higher than the negative control [7] [fold]	caspase-3 [7] [pg/mL]	total necrosis and apoptosis (early and late) percentage [8] [%]	IC50 [9] [µM]	IC50 [10] [µM]
Cc1ccc(NC(=O)c2c(Nc3ccccc3)n[nH]c2N=Cc2c[nH]c3ccccc23)cc1 [7b, 5-((1H-Indol-3-yl)methyleneamino)-3-(phenylamino)-N-(4-methylphenyl)-1H-pyrazole-4-carboxamide]	0.4	2.479 ± 0.07	19.6 ± 3.5	14.1 ± 2.1	14.5 ± 2.5	272.6 ± 11.5	18.5	0.14	29.4	27.51	0.33	46.39	53.28	5.8	469.8 ± 10	27.51	0.095 ± 0.1	7.9 ± 1.9
O=C(Nc1ccccc1)c1c(Nc2ccccc2)n[nH]c1N=Cc1c[nH]c2ccccc12 [7a, 5-((1H-Indol-3-yl)methyleneamino)-N-phenyl-3-(phenylamino)-1H-pyrazole-4-carboxamide]	0.5	3.123 ± 0.1	17.4 ± 3.2	23.7 ± 3.1	10.6 ± 2.3	211.3 ± 5.9	14.9	0.1	2.4	22.18	4.11	44.61	51.28	7	388.7 ± 7	22.18	0.074 ± 0.15	6.1 ± 1.9
